Assay results from the supplement of paper PMC10307832.

Experiments:
Test in all cases: relative viability (nuclei count vs DMSO), 5 days (fraction); higher = more cells survive
Trametinib + Phenformin = compound: CC(=O)Nc1cccc(-n2c(=O)n(C3CC3)c(=O)c3c(Nc4ccc(I)cc4F)n(C)c(=O)c(C)c32)c1 [Trametinib] + N=C(N)NC(=N)NCCc1ccccc1 [Phenformin] (partner 250 µM)
Method in brief: (§1)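 Lung cancer cell lines, seeded in 1536-well plates, were treated the following day by pin tool with a single drug or with five library-drug doses (not always all listed) in √10 steps on top of a fixed anchor-drug dose. Cells were fixed and nuclei stained in one step after 5 days, and nuclei were counted. Relative viability is the nuclei count for treated wells divided by that for vehicle wells, reported as medians of duplicate plates.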

[1] = compound: CN1C=C(C2=CC=CC=C21)/C=C\3/C4=C(C=CC=N4)NC3=O + CCNC(=O)c1noc(-c2cc(C(C)C)c(O)cc2O)c1-c1ccc(CN2CCOCC2)cc1 [Luminespib] (partner 0.01 µM)
Method in brief: as §1

[2] = compound: CN1C=C(C2=CC=CC=C21)/C=C\3/C4=C(C=CC=N4)NC3=O + Nc1ncn([C@H]2C[C@H](O)[C@@H](CO)O2)c(=O)n1 [Decitabine] (partner 2 µM)
Method in brief: as §1

[3] = compound: CN1C=C(C2=CC=CC=C21)/C=C\3/C4=C(C=CC=N4)NC3=O + O=C(c1cc(Cc2n[nH]c(=O)c3ccccc23)ccc1F)N1CCN(C(=O)C2CC2)CC1 [Olaparib] (partner 8 µM)
Method in brief: as §1

Row | Cell Line | relative viability (Trametinib + Phenformin; first compound 0.0025 µM) | relative viability (Trametinib + Phenformin; first compound 0.007906 µM) | relative viability (Trametinib + Phenformin; first compound 0.025 µM) | relative viability (Trametinib + Phenformin; first compound 0.07906 µM) | relative viability (Trametinib + Phenformin; first compound 0.25 µM) | relative viability ([1]; first compound 0.02 µM) | relative viability ([1]; first compound 0.06325 µM) | relative viability ([1]; first compound 0.2 µM) | relative viability ([1]; first compound 0.6325 µM) | relative viability ([1]; first compound 2 µM) | relative viability ([2]; first compound 0.02 µM) | relative viability ([2]; first compound 0.06325 µM) | relative viability ([2]; first compound 0.2 µM) | relative viability ([2]; first compound 0.6325 µM) | relative viability ([2]; first compound 2 µM) | relative viability ([3]; first compound 0.02 µM) | relative viability ([3]; first compound 0.06325 µM) | relative viability ([3]; first compound 0.2 µM) | relative viability ([3]; first compound 0.6325 µM) | relative viability ([3]; first compound 2 µM)
1 | 201T | 0.397 | 0.412 | 0.44 | 0.437 | 0.423 | 1.01 | 1.06 | 1.12 | 1.03 | 1.15 | 0.857 | 0.891 | 0.859 | 0.885 | 0.917 | 0.821 | 0.781 | 0.868 | 0.931 | 0.87
2 | A549 | 0.166 | 0.153 | 0.125 | 0.116 | 0.058 |  |  |  |  |  | 0.332 | 0.207 | 0.133 | 0.225 | 0.324 | 0.325 | 0.352 |  | 0.278 | 0.355
3 | A-427 | 0.234 | 0.286 | 0.22 | 0.207 | 0.137 | 0.849 | 0.902 |  | 1.08 | 1.01 | 0.632 | 0.479 |  | 0.557 | 0.651 | 0.708 | 0.606 |  | 0.71 | 0.76
4 | ABC-1 | 0.236 | 0.259 | 0.226 | 0.213 | 0.221 |  | 0.531 |  | 0.678 | 0.801 | 1.3 | 0.941 | 0.829 | 0.909 | 1.15 | 0.976 | 0.745 | 0.612 | 0.826 | 0.86
5 | BEN | 0.264 | 0.258 | 0.247 | 0.278 | 0.275 | 0.286 | 0.394 |  | 0.357 | 0.281 | 0.691 | 0.634 | 0.513 | 0.623 | 0.781 | 1.01 | 0.91 | 0.885 | 1.14 | 1.24
6 | CAL-12T | 0.457 | 0.376 | 0.295 | 0.267 | 0.229 | 0.22 | 0.561 | 0.48 | 0.432 | 0.381 |  |  |  |  |  | 0.729 | 0.587 | 0.617 | 0.75 | 0.625
7 | COR-L23 | 0.479 | 0.437 | 0.384 | 0.388 | 0.269 | 0.623 | 0.632 | 0.702 | 0.699 | 0.789 | 0.446 | 0.372 | 0.403 | 0.408 | 0.435 | 0.349 | 0.289 | 0.274 | 0.283 | 0.312
8 | COR-L 105 | 0.421 | 0.354 | 0.293 | 0.277 | 0.213 | 0.634 | 0.616 | 0.625 | 0.804 | 0.85 | 0.633 | 0.745 | 0.63 | 0.68 | 0.64 | 0.522 | 0.459 | 0.478 | 0.585 | 0.967
9 | Calu-6 |  |  |  |  |  |  |  |  |  |  |  |  |  |  |  | 0.504 | 0.528 | 0.569 | 0.488 | 0.787
10 | ChaGo-K-1 | 0.413 | 0.444 | 0.492 | 0.414 | 0.317 | 0.54 | 0.56 | 0.522 | 0.482 | 0.59 | 0.519 | 0.515 | 0.5 | 0.534 | 0.476 | 0.426 | 0.405 | 0.414 | 0.387 | 0.339
11 | EBC-1 |  |  |  |  |  |  |  |  |  |  |  |  |  |  |  | 0.728 | 0.68 | 0.623 | 0.625 | 0.585
12 | EKVX | 0.234 | 0.209 | 0.198 | 0.192 | 0.24 | 0.79 | 0.784 | 0.821 | 0.865 | 0.868 | 0.291 |  |  | 0.303 | 0.301 | 0.892 |  |  | 0.8 | 0.717
13 | EMC-BAC-2 | 0.582 | 0.565 | 0.443 | 0.475 | 0.31 | 1.19 | 1.18 | 1.29 | 1.17 | 1.19 | 0.925 | 0.926 | 1.01 | 0.99 | 1.04 | 0.354 | 0.445 | 0.488 | 0.418 | 0.383
14 | EPLC-272H | 0.273 | 0.194 | 0.171 | 0.15 | 0.128 | 0.156 | 0.309 | 0.169 |  | 0.383 | 0.382 | 0.345 |  | 0.333 | 0.336 | 1.16 | 0.706 | 0.712 |  | 0.682
15 | H3255 | 0.346 | 0.368 | 0.342 | 0.297 | 0.263 | 1.03 | 1 | 0.786 | 0.86 | 0.77 | 0.796 |  | 0.57 | 0.563 | 0.491 | 0.64 | 0.554 | 0.55 | 0.606 | 0.602
16 | HARA | 0.399 | 0.426 | 0.386 | 0.373 | 0.214 | 0.347 | 0.951 |  | 0.558 | 0.676 | 0.373 | 0.477 |  | 0.597 | 0.524 | 0.247 | 0.747 |  | 0.726 | 0.794
